Test [1] relates to PPARγ. The settings on record: cited from earlier work.
Another test addresses T1, GAL4-mPPARγ (Mus musculus, UniProt P37238).
T1 construct: expressed in transfected cells; host or cells: COS7
The experiment in a line: GAL4-mPPARγ activation, transient transfection luciferase reporter in COS7 cells. It is filed as cell-based. The procedure:
pCMX-Gal4, pCMX-Gal4-mPPARγ, and pCMX-Gal4-hRXRα were previously described ([Grün et al. 2006]). Transient transfections were performed in COS7 cells as described ([Chamorro-García et al. 2012]). Briefly, COS7 cells were seeded at 15,000 cells per well in 96-well tissue culture plates in 10% calf bovine serum. The following day, cells were transfected in Opti-MEM at ~ 90% confluency. One microgram of CMX-GAL4 effector plasmid was co-transfected with 5 μg tk-(MH100)4-luciferase reporter and 5 μg of CMX-β-galactosidase transfection control plasmids in Opti-MEM® using Lipofectamine® 2000 reagent (Invitrogen™ Life Technologies, Carlsbad, CA, USA), following the manufacturer’s recommended protocol. All chemicals were solvated in dimethyl sulfoxide (DMSO). After overnight incubation, the medium was replaced with Dulbecco’s Modified Eagle Medium (DMEM; HyClone, Logan, UT, USA), 10% resin charcoal stripped fetal bovine serum (FBS) plus ligands at concentrations indicated in the figure legends for an additional 24 hr. DMSO concentration was maintained at 0.05% across all chemical treatments. Cells were lysed and assayed for luciferase and β-galactosidase activity as previously described ([Forman et al. 1995]). All transfections were performed in triplicate and reproduced in multiple experiments. Data are reported as fold induction or reduction over vehicle ([…]) controls ± SEM (standard error of the mean) using standard propagation of error ([Bevington and Robinson 2003]). […] The EC50, EC10, IC50, and IC10 values from NCGC and ToxCast™ are reported from gain AC50 and AC10 values in the ToxCast™ 2014 release ([Filer et al. 2014]).
Figure 1 ToxCast™ Chemical Activity on PPARγ. The ability of a graded dose series of ToxCast™ chemicals to (A) activate or (B) antagonize GAL4-mPPARγ was tested in transiently transfected COS7 cells. (A, B) Data points are averages of triplicate transfections (three biological replicates). […] Data are depicted as (A) fold induction or (B) reduction over vehicle (0.05% DMSO) controls ± SEM. (A) ToxCast™ chemicals were tested in 3-fold serial dilutions from 100 μM through 0.137 μM, with the final data point being 0.05% DMSO. Rosiglitazone serves as a positive control activator. (B) ToxCast™ chemicals were tested in 3-fold serial dilutions from 100 μM, in competition with 50 nM rosiglitazone (Rosi). […] (C) EC50, EC10, IC50, and IC10 values calculated from A and B are reported and compared to commercial assays (see Figure S1). Note: ATG, Attagene GAL-PPARγ activation assay; NCGC, GeneBLAzer® agonist (EC values) or antagonist (IC values) assays. Triphenyltin was previously published ([Kanayama et al. 2005]).
Figure 4 ToxPi Chemical Activity on PPARγ and RXRα. The ability of a graded dose series of ToxPi chemicals to activate (A) GAL4-mPPARγ or (B) GAL4-hRXRα was tested in transiently transfected COS7 cells. (A, B) Data points are averages of triplicate transfections (three biological replicates). […] ToxPi chemicals were tested in 3-fold serial dilutions from 100 μM through 0.137 μM, with the final data point being 0.05% DMSO. Data are depicted as fold induction over vehicle (0.05% DMSO) controls ± SEM. (A) Rosiglitazone serves as a positive control activator for GAL4-mPPARγ. (B) LG100268 (2-[1-(3,5,5,8,8-Pentamethyl-5,6,7,8-tetrahydro-2-naphthyl)cyclopropyl]pyridine-5-carboxylic acid) serves as a positive control activator for GAL4-hRXRα. (C) EC50 and EC10 values calculated from A and B are reported and compared to other assays (see Figure S1). ATG, Attagene GAL-PPARγ or GAL-RXRα activation assay; NCGC, GeneBLAzer® GAL-PPARγ or GAL-RXRα activation assays. Triphenyltin was previously published ([Kanayama et al. 2005]).

The subject of test [2] is PPARγ. On the set-up: method as in Filer et al. 2014. The note with it: PPARγ; NA = not active; ref Filer et al. 2014; read-out: NCGC Antag. AC50, 2014 Release; cited from earlier work.
In another test the test system is Human PPARγ. The settings on record: cited from earlier work.
A further test has as its system 3T3-L1 preadipocytes. The experiment in a line: 3T3-L1 adipogenesis assay (lipid accumulation, adipogenic gene expression). The note with it: 0.02-20 μM, 5 days after MDI induction. The format is cell-based. The procedure: 3T3-L1 cells (ATCC) were maintained in high-glucose DMEM supplemented with 10% fetal bovine serum, 2 mM L-glutamine, 50 IU/mL penicillin, and 50 μg/mL streptomycin. A total of 2 × 10^4 cells per well were seeded in 12-well plates. After 48 hr, cells were exposed to the adipogenic cocktail MDI (500 μM isobutylmethylxanthine, 0.25 nM dexamethasone and 5 μg/mL insulin), 8 μg/mL biotin and 8 μg/mL pantothenate for 2 days. Induction media was removed and cells were exposed to test chemicals during 5 days, replacing the media every 2 days. Rosiglitazone (ROSI) and tributyltin (TBT) were used as positive controls at 100 nM and 50 nM final concentrations, respectively. All ToxCast™ chemicals were tested at 0.02, 0.2, 2, and 20 μM, and DMSO concentration was maintained at 0.1% across all treatments. If the chemical was toxic at 20 μM, we repeated the experiment at 10 μM.
Cells were either fixed in 3.7% formaldehyde in phosphate-buffered saline (PBS) for 30 min at room temperature (RT) for lipid quantitation, or homogenized in TriPure (Roche, Mannheim, Germany) for gene expression analysis. For lipid quantitation, fixed cells were washed twice with PBS and maintained in PBS overnight at 4°C to release residual phenol red. Background of cells were measured prior to staining. Cells were stained with 1 μg/mL Nile red (CAS No. 7385-67-3) (to detect lipid accumulation) and 1 μg/mL Hoechst 33342 (ThermoFisher Scientific) (to detect nuclei as a surrogate for cell number) in PBS for 15 min in the dark at RT and washed twice with PBS. […] Background values of Hoechst and Nile red were subtracted from the RFUs after staining and the ratio RFUNile Red:RFUHoechst was calculated. Data are represented as mean ± SEM. Total RNA was isolated using TriPure (Roche) as recommended by the manufacturer. Reverse transcription and quantitative real-time RT-PCR (QPCR) were performed using Transcriptor RT and SYBR® Green Master Mix (Roche). cDNA was quantitated in a LightCycler® 480 System (Roche Diagnostics, Basel, Switzerland) using primer sets listed in Table S4. Each primer set amplified a single band as determined by gel electrophoresis and melting curve analysis. QPCR data were analyzed using the 2^ΔΔCt method ([Livak and Schmittgen 2001]) relative to ribosomal protein 36b4, normalizing to 0.1% DMSO vehicle. Error bars represent the SEM from four to six biological replicates calculated using standard propagation of error ([Bevington and Robinson 2003]).

For test [3], the system named is PPARγ. The note with it: ToxCast 2014 release, ref Filer et al. 2014, cited from earlier work.
Setting [4] is: PPARγ, NA = not active, ref Filer et al. 2014, read-out: ATG Agonist AC50, 2014 Release.
Where [5] appears, read: PPARγ, NA = not active, ref Knudsen et al. 2011, read-out: ATG Agonist AC50, 2011 Release.
Where [6] appears, read: Cos-7 transient transfection, PPARγ or RXRα activation assays (Table 2).
[7] abbreviates: ToxCast 2014 release, ref Filer et al. 2014, read-out: Attagene AC50 (panel A, w/o Z-Score Correction ranking).
The mark [8] stands for this setting: direct binding, ToxCast 2014 release, ref Filer et al. 2014, read-out: NovaScreen AC50 (panel A).
Setting [9] is: read-out: Tox21/NCGC AC50 (panel A).

The text below walks through data of PMC4977052, “On the Utility of ToxCast™ and ToxPi as Methods for Identifying New Obesogens” (Environmental Health Perspectives, 2016).

Read-outs that look alike come from different tables or passages of the source.

T1 sequence (P37238 with tags, fused parts or gaps limits assumed): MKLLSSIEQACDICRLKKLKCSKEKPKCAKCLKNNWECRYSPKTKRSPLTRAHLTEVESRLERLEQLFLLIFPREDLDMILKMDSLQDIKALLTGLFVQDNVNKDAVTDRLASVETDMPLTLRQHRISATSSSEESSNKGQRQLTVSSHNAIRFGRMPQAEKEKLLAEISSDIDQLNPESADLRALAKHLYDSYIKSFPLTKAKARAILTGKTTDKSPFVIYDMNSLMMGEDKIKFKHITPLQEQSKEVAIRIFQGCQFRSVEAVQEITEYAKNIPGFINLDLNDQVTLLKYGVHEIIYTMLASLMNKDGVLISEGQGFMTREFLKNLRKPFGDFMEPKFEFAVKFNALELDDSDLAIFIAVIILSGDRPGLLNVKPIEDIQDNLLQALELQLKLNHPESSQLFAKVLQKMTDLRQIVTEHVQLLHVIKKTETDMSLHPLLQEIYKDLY

Take `COCC(C)N(C(=O)CCl)c1c(C)csc1C` (stereo not shown) [Dimethenamid]: the results for the AC50 in the test with PPARγ [1] (setting [4]), in the test with PPARγ [1] (setting [5]) and in the test on PPARγ [2] were 4.6 µM, 5.6 µM and 21.4 µM, respectively. At GAL4-mPPARγ, the “Activation COS7 (result in words), ToxCast PPARγ list” value (from here on “Activation COS7 … ToxCast PPARγ list”) is given as “Inactive”.

Consider `O=S(=O)(O)C(F)(F)C(F)(F)C(F)(F)C(F)(F)C(F)(F)C(F)(F)C(F)(F)C(F)(F)F` [PFOS, perfluorooctanesulfonic acid], for which the AC50 in the test with PPARγ [1] (ToxCast Phase I 2011 release, NA = not active, ref Knudsen et al. 2011, read-out: ATGT PPARγ AC50) is 26 µM; in the test with Human PPARγ (direct binding, ToxCast Phase I 2011 release, NA = not active, ref Knudsen et al. 2011, read-out: NVS PPARγ AC50), 16 µM. For the same compound, the “Activation COS7 (result in words), ToxPi chemicals” value (“Activation COS7 … ToxPi chemicals” for short) on GAL4-mPPARγ (setting [6]) is “Inactive”. Moreover, the “Adipogenesis 3T3-L1 (result in words)” value with 3T3-L1 preadipocytes was “Negative”.

Take `Cc1ccn2nc(S(=O)(=O)Nc3c(F)cccc3F)nc2n1` [Flumetsulam]: the “Activation COS7 … ToxPi chemicals” value on GAL4-mPPARγ (setting [6]) is reported as “Inactive”. In the test with 3T3-L1 preadipocytes, the “Adipogenesis 3T3-L1 (result in words)” value is “Negative”.

On to `CCCCOCN(C(=O)CCl)c1c(CC)cccc1CC` [Butachlor], for which the AC50 with PPARγ [1] (setting [4]) is 2 µM; in the test with PPARγ [1] (setting [5]) it was 2.1 µM; in the test on PPARγ [2] it was 26.4 µM.

Regarding `CCCN(CCOc1c(Cl)cc(Cl)cc1Cl)C(=O)n1ccnc1` [Prochloraz], the AC50 is 3.5 µM in the test with PPARγ [1] (setting [5]); 81.5 µM in the test on PPARγ [2]; 27.5 µM with Human PPARγ (PPARγ direct binding, NA = not active, ref Filer et al. 2014, read-out: NVS Agonist AC50, 2014 Release). Further, the “Activation COS7 … ToxCast PPARγ list” value on GAL4-mPPARγ (Cos-7 transient transfection, PPARγ activation or antagonism assays (Table 1, Table S6)) is “Inactive”.

On to `CNC(=O)/C=C(\C)OP(=O)(OC)OC` [Monocrotophos], for which the AC50 in the test with PPARγ [1] (setting [7]) is 2.2 µM; in the test with Human PPARγ (setting [8]) it was 20.8 µM; with PPARγ [3] (setting [9]), 67.5 µM. Moreover, on GAL4-mPPARγ (setting [6]), the “Activation COS7 … ToxPi chemicals” value is “Inactive”. Moreover, the “Adipogenesis 3T3-L1 (result in words)” value in the test with 3T3-L1 preadipocytes is “Negative”.

As to `COC(=O)N(OC)c1ccccc1COc1ccn(-c2ccc(Cl)cc2)n1` [Pyraclostrobin], the AC50 is 0.61 µM in the test on PPARγ [1] (setting [4]), 0.76 µM with PPARγ [1] (setting [5]) and 0.7 µM with PPARγ [2]. Also, the “Activation COS7 … ToxCast PPARγ list” value on GAL4-mPPARγ was “Inactive”.

On to `CCc1ccc(C(=O)NN(C(=O)c2cc(C)cc(C)c2)C(C)(C)C)cc1` [Tebufenozide], for which the AC50 in the test with PPARγ [1] (setting [4]) is 7.6 µM; in the test on PPARγ [1] (setting [5]), 6.3 µM; with PPARγ [2], 50.8 µM. The “Activation COS7 … ToxCast PPARγ list” value at GAL4-mPPARγ is on record as “Inactive”.

`C/C(=N\C#N)N(C)Cc1ccc(Cl)nc1` [Acetamiprid]: the “Activation COS7 … ToxPi chemicals” value at GAL4-mPPARγ is given as “Inactive”. Also, the figures for the “Adipogenesis 3T3-L1 (result in words)” value with 3T3-L1 preadipocytes and in the test with 3T3-L1 preadipocytes (listed as acetamiprid) were “Positive” and “promoted adipogenesis”, respectively.

For `Oc1cc(Cl)ccc1Oc1ccc(Cl)cc1Cl` [Triclosan], the AC50 is 8.6 µM in the test on PPARγ [1] (setting [7]), 7.1 µM in the test with Human PPARγ (setting [8]) and 25.8 µM in the test with PPARγ [3] (setting [9]). Besides, at GAL4-mPPARγ (COS7, 100 μM through 0.137 μM), the “Activation of GAL4-PPARγ (text)” value was “inactive”.

As for `O=c1ccc(=O)[nH][nH]1` [Maleic hydrazide], on GAL4-mPPARγ (setting [6]), the “Activation COS7 … ToxPi chemicals” value is recorded as “Inactive”. Moreover, in the test with 3T3-L1 preadipocytes, the “Adipogenesis 3T3-L1 (result in words)” value is on record as “Negative”.

For `CC1=NNC(=O)N(/N=C/c2cccnc2)C1` [Pymetrozine], the “Activation COS7 … ToxPi chemicals” value on GAL4-mPPARγ (setting [6]) is “Inactive”. For the same compound, the results for the “Adipogenesis 3T3-L1 (result in words)” value in the test with 3T3-L1 preadipocytes and in the test on 3T3-L1 preadipocytes (listed as pymetrozine) were “Positive” and “promoted adipogenesis”, respectively.

With `CCCCC(O)(Cn1cncn1)c1ccc(Cl)cc1Cl` (stereo not shown) [Hexaconazole], the AC50 in the test with PPARγ [1] (setting [7]) was 1.2 µM; in the test on Human PPARγ (setting [8]), 0.3 µM; in the test on PPARγ [3] (setting [9]), 0.1 µM.

`COC(=O)NS(=O)(=O)c1ccc(N)cc1` [Asulam]: the “Activation COS7 … ToxPi chemicals” value at GAL4-mPPARγ (setting [6]) is “Inactive”. Also, the “Adipogenesis 3T3-L1 (result in words)” value in the test on 3T3-L1 preadipocytes was “Negative”.

For the compound `O=C(O)COc1nc(Cl)c(Cl)cc1Cl` [Triclopyr], the AC50 with PPARγ [1] (setting [7]) was 54.7 µM; with PPARγ [1] (ToxCast 2014 release, ref Filer et al. 2014, read-out: Attagene AC50 (panel B, with Z-Score Correction ranking)) it was 54.7 µM; in the test on Human PPARγ (setting [8]), 2.1 µM; in the test on Human PPARγ (direct binding, ToxCast 2014 release, ref Filer et al. 2014, read-out: NovaScreen AC50 (panel B)), 2.1 µM; with PPARγ [3] (setting [9]), 41.5 µM; in the test on PPARγ [3] (read-out: Tox21/NCGC AC50 (panel B)), 41.5 µM.

For `N#CSCSC#N` [Methylene dithiocyanate], at GAL4-mPPARγ (setting [6]), the “Activation COS7 … ToxPi chemicals” value was “Inactive”. In the test on 3T3-L1 preadipocytes, the “Adipogenesis 3T3-L1 (result in words)” value is given as “Negative”.
